Results from patent US20220095648A1, “USE OF A THRAUSTOCHYTRID BIOMASS FOR MAINTAINING GUT BARRIER FUNCTION” (priority 2019, published 2022).

What was measured:
Assay type in all cases: cell-based
[1] = system: Caco-2 cells; experiment: D-glucose total and passive uptake by Caco-2 cells exposed to DON; details: DON 10 μM alone
Source text: (§1) In order to test the ability of microalgae to reduce/prevent the effect of DON on nutrient absorption through epithelial cells, Caco-2 cells were exposed to a metabolically active dose of DON, in the absence or presence of Aurantiochytrium mangrovei FCC1325 microalgae (lyophilized microalgae “ML”, or digested lyophilized microalgae “MLD”), at a dose of 1% or 5%. Two main types of nutrients were considered (i.e. glucose and amino acids—more particularly Methionine, Lysine and Threonine), and the following measurements were carried out: • For glucose (D-Glc): passive, active (regulated by the sodium-dependent SGLT-1 transporter) and total (active+passive) absorption • For amino acids (L-Methionine, L-Lysine and L-Threonine): passive, active (regulated by sodium-dependent transport) and total (active+passive) absorption
(§2) Briefly, Caco-2 cells were cultured and seeded onto 12-well inserts, as described in Example 1, and then let to differentiate for 16-21 days post-seeding before being used, with medium changes every two days. When differentiated, Caco-2 cells were incubated or not with DON at 10 μM (apically added), in the absence or presence of 1 or 5% (v:v final dilution, apically added) of microalgae preparation (ML or MLD). Both ML and MLD powders were resuspended initially at 0.8 mg/ml in buffer (fresh culture medium of the microalgae). Caco-2 cells were incubated for 12, 24 or 48 hours before nutrient uptake was measured.
(§3) At the end of the incubation period, inserts were washed twice with PBS++. Inserts were then washed twice with uptake buffer (Ringer Hepes buffer) with or without sodium. Uptake buffer composition was: • Ringer Hepes buffer with sodium (called “+Na+”): 137 mmol/L NaCl, 5.36 mmol/L KCl, 0.4 mmol/L Na2HPO4, 0.8 mmol/L MgCl2, 1.8 mmol/L CaCl2, 20 mmol/L N-2-hydroxyethylpiperazine-N-2-ethanesulfonic acid (HEPES), pH being adjusted to pH 7.4 with NaOH; or • Ringer Hepes buffer without sodium (called “—Na+”): 137 mmol/L Choline chloride (instead of sodium chloride), 5.36 mmol/L KCl, 0.4 mmol/L K2HPO4 (instead of Na2HPO4), 0.8 mmol/L MgCl2, 1.8 mmol/L CaCl2, 20 mmol/L N-2-hydroxyethylpiperazine-N-2-ethanesulfonic acid (HEPES), pH being adjusted to pH 7.4 with KOH.
(§4) After an equilibration period of 15 min at 37° C., uptake assay was initiated by the addition of D-Glc, L-Lysine, L-Methionine or L-Threonine diluted in the appropriate Ringer Hepes buffer (400 μl) and added apically onto Caco-2 inserts (final concentration of 100 μM of D-Glc and 400 μM for amino-acids), the basolateral compartment being filled with 400 μl of buffer. Inserts were kept incubated at 37° C. during the uptake assay. After 15 minutes incubation, 30 μl of media were collected from apical or basolateral compartments and stored at −20° C. until nutrient quantification. Residual concentrations of D-Glc or L-amino acid present in the apical compartments were measured using enzyme-based quantification assay kits (Glucose Colorimetric/Fluorometric Assay Kit, Sigma-Aldrich).
(§5) Uptakes were expressed as: • Total uptake: uptake measured (either measured residual apical concentration or calculated absorbed (intracellular+basolateral) concentration) in Ringer Hepes buffer with Na+corresponding to the activity of sodium-dependent and sodium-independent transporters; • Passive uptake: uptake measured in Ringer Hepes buffer without Na+corresponding to only passive/sodium-independent transporters; • Active uptake: uptake calculated by subtracting passive uptake to total uptake.

[2] = system: Caco-2 cells; experiment: L-Lysine uptake by Caco-2 cells exposed to DON; details: for % of inhibition by DON, Passive uptake (−Na) / % of inhibition by DON, Total uptake (+Na) / % of inhibition by DON, Active transport: L-Lysine, DON 10 μM alone; for % of inhibition by DON, Active transport: total minus passive
Source text: as §1, §2, §3, §4, §5

[3] = system: Caco-2 cells; experiment: L-Methionine uptake by Caco-2 cells exposed to DON; details: for % of inhibition by DON, Passive uptake (−Na) / % of inhibition by DON, Total uptake (+Na) / % of inhibition by DON, Active transport: L-Methionine, DON 10 μM alone; for % of inhibition by DON, Active transport: total minus passive
Source text: as §1, §2, §3, §4, §5

[4] = system: Caco-2 cells; experiment: L-Threonine uptake by Caco-2 cells exposed to DON; details: DON 10 μM alone; for % of inhibition by DON, Active transport: total minus passive
Source text: as §1, §2, §3, §4, §5

[5] = system: Caco-2 cells; experiment: Nutrient uptake by Caco-2 cells exposed to DON (overall conclusion); details: DON at 10 μM
Experimental: In order to test the ability of microalgae to reduce/prevent the effect of DON on nutrient absorption through epithelial cells, Caco-2 cells were exposed to a metabolically active dose of DON, in the absence or presence of Aurantiochytrium mangrovei FCC1325 microalgae (lyophilized microalgae “ML”, or digested lyophilized microalgae “MLD”), at a dose of 1% or 5%. […]
Briefly, Caco-2 cells were cultured and seeded onto 12-well inserts, as described in Example 1, and then let to differentiate for 16-21 days post-seeding before being used, with medium changes every two days. […] Caco-2 cells were incubated for 12, 24 or 48 hours before nutrient uptake was measured. […]
as §4, with “Inserts were kept incubated at 37° C. during the uptake assay.” left out, “Sigma-Aldrich). […]” for “Sigma-Aldrich).”

Structure (SMILES): CC1=C[C@H]2O[C@@H]3[C@H](O)C[C@](C)([C@@]2(CO)[C@H](O)C1=O)[C@]31CO1 [DON, Deoxynivalenol]
- % of inhibition by DON, Passive uptake (−Na) ([1]; 12 h): 6.4%
- % of inhibition by DON, Total uptake (+Na) ([1]; 12 h): 9.3%
- % of inhibition by DON, Passive uptake (−Na) ([1]; 24 h): 22.2%
- % of inhibition by DON, Total uptake (+Na) ([1]; 24 h): 29.4%
- % of inhibition by DON, Passive uptake (−Na) ([1]; 48 h): 21.6%
- % of inhibition by DON, Total uptake (+Na) ([1]; 48 h): 28.8%
- effect of DON on active L-Lys uptake ([2]; 48 h incubation, DON alone): stimulated
- % of inhibition by DON, Passive uptake (−Na) ([2]; 12 h): −6.1%
- % of inhibition by DON, Total uptake (+Na) ([2]; 12 h): −5.2%
- % of inhibition by DON, Active transport ([2]; 12 h): 57.5%
- % of inhibition by DON, Passive uptake (−Na) ([2]; 24 h): −10.1%
- % of inhibition by DON, Total uptake (+Na) ([2]; 24 h): −5.2%
- % of inhibition by DON, Active transport ([2]; 24 h): 44.2%
- % of inhibition by DON, Passive uptake (−Na) ([2]; 48 h): −6.6%
- % of inhibition by DON, Total uptake (+Na) ([2]; 48 h): −9.4%
- % of inhibition by DON, Active transport ([2]; 48 h): −102.3%
- effect of DON on L-Met active uptake ([3]; 12 h incubation): stimulated
- effect of DON on active L-Met uptake ([3]; 48 h incubation, DON alone): stimulated
- % of inhibition by DON, Passive uptake (−Na) ([3]; 12 h): −2.2%
- % of inhibition by DON, Total uptake (+Na) ([3]; 12 h): −9.6%
- % of inhibition by DON, Active transport ([3]; 12 h): −256.0%
- % of inhibition by DON, Passive uptake (−Na) ([3]; 24 h): −4.9%
- % of inhibition by DON, Total uptake (+Na) ([3]; 24 h): −12.9%
- % of inhibition by DON, Passive uptake (−Na) ([3]; 48 h): 1.8%
- % of inhibition by DON, Total uptake (+Na) ([3]; 48 h): −4.1%
- % of inhibition by DON, Active transport ([3]; 48 h): −102.4%
- % of inhibition by DON, Passive uptake (−Na) ([4]; 12 h): −9.5%
- % of inhibition by DON, Total uptake (+Na) ([4]; 12 h): −6.3%
- % of inhibition by DON, Active transport ([4]; 12 h): 56.5%
- % of inhibition by DON, Passive uptake (−Na) ([4]; 24 h): −9.5%
- % of inhibition by DON, Total uptake (+Na) ([4]; 24 h): −6.3%
- % of inhibition by DON, Active transport ([4]; 24 h): 56.5%
- % of inhibition by DON, Passive uptake (−Na) ([4]; 48 h): −16.9%
- % of inhibition by DON, Total uptake (+Na) ([4]; 48 h): −14.5%
- % of inhibition by DON, Active transport ([4]; 48 h): 76.4%
- effect of DON on intestinal nutrient uptake [5]: alters intestinal nutrient uptake
